10 compounds from ChEMBL document CHEMBL1201862, “PubChem BioAssay data set” (2004) can be followed below.

Structures are written as SMILES.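 A five-concentration, 48-hour dose response in 96-well plates underlies each endpoint, interpolated linearly between surrounding concentrations. The concentration for 50% growth inhibition is given as GI50.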 Activity calls are given as the source filed them. Cut-off read from the data, not from the text of the source: active = GI50 up to about 1.1 µM and inactive = higher. Peptide text beside a SMILES is read from it. * marks the point of attachment. Cbz = O=C(OCc1ccccc1)*

Common to all, as to experiment: NCI-60 cell line screen, 48 h
For assay [1], the system named is 786-0.
Assay [2] has as its system SN12C.
In assay [3] the test system is MCF7.
In assay [4] the test system is CAKI-1.
The subject of assay [5] is DU-145.
The subject of assay [6] is SK-MEL-2.
The subject of assay [7] is PC-3.
Assay [8] relates to HL-60.
Assay [9] concerns OVCAR-8.
The subject of assay [10] is ACHN.
The test system of assay [11] is UO-31.
Assay [12] concerns KM12.
Assay [13] concerns SF-295.
Assay [14] deals with MDA-MB-231.
Assay [15] has as its system COLO 205.
Assay [16] concerns K562.
Assay [17] has as its system RXF 393.
For assay [18], the system named is NCI-H23.
Assay [19] concerns A498.
Assay [20] has as its system SK-MEL-5.

As to `CCCCCCCC(=O)N/N=C/c1ccc(Sc2nccn2C)c([N+](=O)[O-])c1`, the GI50 in [1] is 14.9 µM (inactive); in assay [2], 14.5 µM (inactive); in [3], 16.6 µM (inactive); in assay [4], 15.5 µM (inactive); in [5] it was 18.4 µM (inactive); in assay [6], 16.6 µM (inactive). For the same compound, the GI50 in assay [7] is 15.6 µM (inactive); in assay [8], 0.27 µM (active); in assay [9], 14.4 µM (inactive); in assay [10], 21.9 µM (inactive); in assay [11], 10.3 µM (inactive); in assay [12], 14.1 µM (inactive). Also, the GI50 is 15.6 µM (inactive) in [13]; 15 µM (inactive) in assay [14]; 13.7 µM (inactive) in assay [15]; 14.2 µM (inactive) in assay [16]; 14.7 µM (inactive) in assay [17]; 18.2 µM (inactive) in assay [18]. For the same compound, the GI50 in [19] is 15.2 µM (inactive); in assay [20], 12.9 µM (inactive).
With `N/C(=N\N=C\c1c[nH]c2ccccc12)Nc1ccccc1`, the GI50 was 0.318 µM (active) in [1]; 0.535 µM (active) in [2]; 0.185 µM (active) in [3]; 0.519 µM (active) in assay [4]; 0.314 µM (active) in assay [5]; 0.345 µM (active) in assay [6]. The GI50 is 0.201 µM (active) in assay [7]; 0.144 µM (active) in [8]; 0.41 µM (active) in assay [9]; 0.671 µM (active) in [10]; 0.721 µM (active) in assay [11]; 0.153 µM (active) in assay [12]. The GI50 in [13] was 0.134 µM (active); in assay [14], 0.624 µM (active); in assay [15] it was 0.188 µM (active); in assay [16], 0.278 µM (active); in assay [17] it was 0.156 µM (active); in assay [18], 0.308 µM (active). Besides, the GI50 in assay [19] is 0.256 µM (active); in assay [20], 0.176 µM (active).
Regarding `CC(CO)[C@H]1OC(=O)C=C2[C@@]13O[C@@H]3[C@H]1OC(=O)[C@@]3(C)[C@H]4O[C@H]4C[C@@]2(C)[C@@H]13` (stereo not given in full), the GI50 in assay [1] is 1.57 µM (inactive); in [2], 1.92 µM (inactive); in assay [3] it was 1.07 µM (active); in assay [4] it was 1.84 µM (inactive); in assay [5] it was 1.39 µM (inactive); in [6] it was 2.07 µM (inactive). The GI50 was 2.96 µM (inactive) in [7]; 0.343 µM (active) in [8]; 2.25 µM (inactive) in assay [9]; 0.843 µM (active) in [10]; 1.73 µM (inactive) in assay [11]; 1.19 µM (inactive) in assay [12]. Also, the GI50 is 1.36 µM (inactive) in assay [13]; 2.51 µM (inactive) in [14]; 1.58 µM (inactive) in [15]; 1.17 µM (inactive) in assay [16]; 1.62 µM (inactive) in assay [17]; 2.43 µM (inactive) in [18]. Moreover, the GI50 was 4.1 µM (inactive) in [19] and 0.8 µM (active) in [20].
Consider `CC(CCC(=O)O)C(=O)O` (stereo not given), for which the GI50 in [1], in assay [2], in assay [3], in [4], in assay [5] and in [6] was > 100 µM (inactive) in each case. Moreover, the GI50 in assay [7], in assay [8], in [9], in [10], in assay [11] and in assay [12] was > 100 µM (inactive) throughout. Besides, the GI50 in assay [13], in [14], in [15], in assay [16], in assay [17] and in assay [18] was > 100 µM (inactive) throughout. Moreover, the GI50 in assay [19] and in assay [20] was > 100 µM (inactive) throughout.
As to `[O-][n+]1cc(SCc2ccccc2)ncc1SCc1ccccc1`, the GI50 in assay [1], in [2], in assay [3], in [4], in [5] and in assay [6] was > 10 µM (inactive) in each case. Further, the GI50 in assay [7], in [8], in assay [9], in assay [10], in [11] and in [12] was > 10 µM (inactive) in each case. Moreover, the GI50 in assay [13], in assay [14], in [15], in [16], in assay [17] and in assay [18] was > 10 µM (inactive) each time. For the same compound, the GI50 in assay [19] and in assay [20] was > 10 µM (inactive) in each case.
As to `CC#CCCN(CC#N)Cc1ccccc1`, the GI50 in assay [1] was > 100 µM (inactive); in [2], > 100 µM (inactive); in assay [3], 20.1 µM (inactive); in assay [4] it was > 100 µM (inactive); in assay [5], > 100 µM (inactive); in assay [6], > 100 µM (inactive). Besides, the GI50 is > 100 µM (inactive) in [7]; > 100 µM (inactive) in [8]; > 100 µM (inactive) in assay [9]; 21.3 µM (inactive) in [10]; > 100 µM (inactive) in [11]; > 100 µM (inactive) in [12]. The GI50 in assay [13], in [14], in assay [15], in [16], in [17] and in assay [18] was > 100 µM (inactive) throughout. In addition, the results for the GI50 in assay [19] and in assay [20] were 20.4 µM (inactive) and > 100 µM (inactive), respectively.
As to `CN(N=O)c1ccc(/C=C/c2ccnc3ccccc23)cc1`, the GI50 in [1] was 46.5 µM (inactive); in [2] it was 37.6 µM (inactive); in assay [3], 53.8 µM (inactive); in assay [4], 42.3 µM (inactive); in assay [5], 61.5 µM (inactive); in assay [6] it was > 100 µM (inactive). Besides, the GI50 in assay [7] is 76.4 µM (inactive); in assay [8] it was 92.3 µM (inactive); in assay [9], 58.1 µM (inactive); in assay [10], 47 µM (inactive); in [11], 30.4 µM (inactive); in [12], 93.5 µM (inactive). The GI50 was 41.4 µM (inactive) in assay [13]; 88.7 µM (inactive) in [14]; 39.3 µM (inactive) in assay [15]; 78.9 µM (inactive) in [16]; 46.6 µM (inactive) in assay [17]; > 100 µM (inactive) in assay [18]. Also, the GI50 is 60.4 µM (inactive) in assay [19] and 37.1 µM (inactive) in assay [20].
Regarding `C1CSCCCSCCCSCCCSCCCSC1`, the GI50 in assay [1] is 40.2 µM (inactive); in assay [2], 37.2 µM (inactive); in [3], 24.5 µM (inactive); in assay [4], 17.7 µM (inactive); in assay [5], 46.5 µM (inactive); in [6] it was 20.7 µM (inactive). Also, the GI50 in [7] was 19 µM (inactive); in [8] it was 14.2 µM (inactive); in assay [9], 29 µM (inactive); in assay [10], 29.2 µM (inactive); in assay [11] it was 26.8 µM (inactive); in assay [12], 25.4 µM (inactive). For the same compound, the GI50 is 22.2 µM (inactive) in assay [13]; 29.2 µM (inactive) in assay [14]; 13.1 µM (inactive) in [15]; 21.4 µM (inactive) in assay [16]; 42.9 µM (inactive) in assay [17]; 26.5 µM (inactive) in assay [18]. Also, the GI50 in assay [19] is 36.2 µM (inactive); in assay [20] it was 14.2 µM (inactive).
`COc1ccccc1/C=C/c1cnccn1`: the GI50 in [1], in assay [2], in [3], in [4], in assay [5] and in assay [6] was > 10 µM (inactive) throughout. The GI50 in assay [7], in [8], in assay [9], in assay [10], in [11] and in [12] was > 10 µM (inactive) in each case. The GI50 in assay [13], in assay [14], in [15], in assay [16], in [17] and in assay [18] was > 10 µM (inactive) in each case. Further, the GI50 in assay [19] and in [20] was > 10 µM (inactive) each time.
In the case of `O=C(O)CCC(NC(=O)OCc1ccccc1)C(=O)NC(Cc1c[nH]cn1)C(=O)O` (stereo not drawn) (Cbz-Glu-His-OH; configuration not given here), the GI50 in assay [1], in assay [2], in assay [3], in assay [4], in assay [5] and in assay [6] was > 100 µM (inactive) each time. Besides, the GI50 in assay [7], in assay [8], in [9], in assay [10], in assay [11] and in [12] was > 100 µM (inactive) each time. The GI50 in [13] is > 100 µM (inactive); in assay [14], 37.1 µM (inactive); in [15] it was > 100 µM (inactive); in [16], > 100 µM (inactive); in assay [17], > 100 µM (inactive); in [18], > 100 µM (inactive). The GI50 in assay [19] and in assay [20] was > 100 µM (inactive) throughout.
